Reference: patent US20040091949A1, “Method of screening drug acting on cell wall” (priority 2000, published 2004)

Experiments:
[1] = tested on: AY-2 strain (wall-type arming yeast); test: GFP releasing effect of available antifungal agents, wall-type arming yeast; type: cell-based, S. cerevisiae; settings: RPMIB medium protected for osmotic pressure, supernatant fluorescence, difference from control with no agent
Description: (§1) The cultured yeast cells in the logarithmic growth phase (AY-2 strain or AY-12 strain) were collected, and various agents were allowed to act on the yeast cells. Fluorescence intensity of the culture supernatant was measured by using Cytofluor 2300 Fluorometer (Millipore, excitation=480 nm, emission=530 nm). The fluorescence intensity under treatment with each of various agents was shown in terms of a difference in fluorescence intensity compared with that of a control in which no agent was added.
(§2) In order to ascertain whether or not the method of the present invention can be utilized for a screening of agents with a targeting site other than Kre6p, the GFP releasing effects in the AY-2 strain (wall-type arming yeast) and the AY-12 strain (membrane-type arming yeast) were compared under actions of available antifungal agents. The AY-2 strain cells and the AY-12 strain cells each cultured in a test tube were floated on a medium (RPMIB) protected for osmotic pressure, and each of the agents was allowed to act on the cells. After the culture, the fluorescence intensity of the supernatant was measured, and a difference from that of a control with no addition of the agent was calculated.

[2] = tested on: AY-12 strain (membrane-type arming yeast); test: GFP releasing effect of available antifungal agents, membrane-type arming yeast; type: cell-based, S. cerevisiae; settings: RPMIB medium protected for osmotic pressure, supernatant fluorescence, difference from control with no agent
Description: as §1, §2

Compound | GFP releasing effect [1] | GFP releasing effect [2]
C[C@@H]1[C@H](O)[C@@H](C)/C=C/C=C/C=C/C=C/C=C/C=C/C=C/[C@H](O[C@@H]2O[C@H](C)[C@@H](O)[C@H](N)[C@@H]2O)C[C@@H]2O[C@](O)(C[C@@H](O)C[C@@H](O)[C@H](O)CC[C@@H](O)C[C@@H](O)CC(=O)O[C@H]1C)C[C@H](O)[C@H]2C(=O)O [Amphotericin B] | Slight releasing effect | Slight releasing effect
OC(Cn1cncn1)(Cn1cncn1)c1ccc(F)cc1F [Fluconazole] | Slight releasing effect | Slight releasing effect
CC[C@@H](C(=O)[C@@H](C)[C@@H](O)[C@H](C)[C@@H]1O[C@@H]([C@@H](CC)C(=O)O)CC[C@@H]1C)[C@H]1O[C@]2(C=C[C@@H](O)[C@]3(CC[C@@](C)([C@H]4CC[C@](O)(CC)[C@H](C)O4)O3)O2)[C@H](C)C[C@@H]1C [Salinomycin] | Slight releasing effect | Slight releasing effect
Aculeacin A | Marked GFP releasing effect | almost no releasing effect
Tunicamycin | Marked GFP releasing effect | almost no releasing effect
